Measurements reported in US8017786B2, “Substituted β-phenyl-α-hydroxy-propanoic acid, synthesis method and use thereof” (Northwest University, priority 2006, dated 2011).
Where a name gives a salt, the structure may show the parent alone.

Legend:
Type in all cases: in vivo, rat
[1] = test system: creatine kinase (CK); assay: Serum CK activity in rats with myocardial ischemia; details: 10 mg/kg intragastric; serum, 24 h after ligation
Method: (§1) At 0.5 h after the rats of these groups were administered intragastrically, the standard II lead electrocardiogram (before modeling) was recorded, and the height of ST-T segment was measured. The rats of sham operation group were then subjected to coronary artery braid without ligation, and the rats of other groups were subjected to coronary artery ligation in accordance with the following method to establish cute myocardial ischemia models. The rats were subjected to etherization, fixed at supine position, and their normal electrocardiograms (before modeling) were recorded. The skin of left thorax was incised under aseptic conditions, the 4th intercostal muscles were isolated in blunt way, the heart was extruded by light pressure to the right thorax, the left anterior descending coronary artery was ligated at a position 2˜3 mm departing from the left coronary artery origin and between the pulmonary conus and the left auricle of heart, then the heart was sent back to thorax cavity immediately and sutured the incision. Penicillin was smeared topically for the prevention of infections. After operation, the electrocardiogram of postischemia was recorded immediately (at 0 min after modeling), and the height of ST-T segment was measured.

[2] = test system: rats with acute myocardial ischemia; assay: ST-T segment of ECG in rats with myocardial ischemia; details: 10 mg/kg intragastric
Method: as §1

[3] = test system: anesthetized rats; assay: Blood pressure and left ventricular function of anesthetized rats; details: for change-rate of left intraventricular pressure MAX / change-rate of left intraventricular pressure, -MAX / contractive pressure / diastolic pressure / heart rate / left intraventricular pressure / mean arterial pressure: 11.4 mg/kg duodenal
Method: All data were input into PowerLab/8Sp data acquisition and processing system via RM-6000 multi-channel polygraph, and recorded, analyzed and processed by PowerLab/8Sp.
The abdomen was opened 1.5 cm below xiphoid bone to isolate duodenum, a small incision was formed on the duodenum away from blood vessels by ophthalmic scissors, a catheter was inserted and the incision was fixed by suture for administration. After the end of operation and a further waiting period of 30 min, normal data were recorded once the indexes to be monitored were stable.
Test drugs were duodenally administered via the catheter, and the indexes were monitored 5, 15, 30, 60, 90 and 120 min after the administration. The change ratios of the indexes were calculated in accordance with the following formula, and were used for statistic analysis among groups.

[4] = test system: creatine kinase isoenzyme (CK-MB); assay: Serum CK-MB activity in rats with myocardial ischemia; details: 10 mg/kg intragastric; serum, 24 h after ligation
Method: as §1

[5] = test system: malondialdehyde (MDA); assay: Serum MDA content in rats with myocardial ischemia; details: 10 mg/kg intragastric; serum, 24 h after ligation
Method: as §1

[6] = test system: rats with acute myocardial ischemia; assay: Area of myocardial infarction in rats with acute myocardial ischemia (coronary artery ligation); details: 10 mg/kg intragastric; 24 h after coronary artery ligation
Method: as §1

[7] = test system: superoxide dismutase (SOD); assay: Serum SOD activity in rats with myocardial ischemia; details: 10 mg/kg intragastric; serum, 24 h after ligation
Method: as §1

[8] = test system: lactate dehydrogenase (LDH); assay: Serum LDH activity in rats with myocardial ischemia; details: 10 mg/kg intragastric; serum, 24 h after ligation
Method: as §1

With COc1ccc(CCN(C)CCCC(C#N)(c2ccc(OC)c(OC)c2)C(C)C)cc1OC (stereo not drawn) [Verapamil, verapamil hydrochloride, reference compound] the CK [1] was 752.2 ± 102.8 U/L, the “Elevation of ST-T segment” value ([2]; 0 min after modeling) was 0.23 ± 0.12 mV and the “Elevation of ST-T segment” value ([2]; 24 h after modeling) was 0.18 ± 0.04 mV. For the same molecule, the “Elevation of ST-T segment, Change rate” value ([2]; 24 h after modeling) was 19.17 ± 20.94 %, the “Elevation of ST-T segment” value ([2]; before modeling) was 0.23 ± 0.04 mV and the “change-rate of left intraventricular pressure MAX” value ([3]; 5 min after administration) was 4857.7 ± 1002.4 mmHg/s. The “change-rate of left intraventricular pressure, -MAX” value (from here on “change-rate … -MAX”) ([3]; 5 min after administration) was −3812.9 ± 779.3 mm/Hg/s, the contractive pressure ([3]; 5 min after administration) was 115.30 ± 19.35 mmHg and the diastolic pressure ([3]; 5 min after administration) was 59.69 ± 12.55 mmHg. For the same molecule, the heart rate ([3]; 5 min after administration) was 345.03 ± 33.81 beat/min, the left intraventricular pressure ([3]; 5 min after administration) was 128.71 ± 14.20 mmHg and the mean arterial pressure ([3]; 5 min after administration) was 78.22 ± 14.31 mmHg. For the same molecule, the “change-rate of left intraventricular pressure MAX” value ([3]; 15 min after administration) was 4284.9 ± 793.2 mmHg/s, the “change-rate … -MAX” value ([3]; 15 min after administration) was −3548.9 ± 707.7 mm/Hg/s and the contractive pressure ([3]; 15 min after administration) was 98.48 ± 16.13 mmHg. It also gave a diastolic pressure ([3]; 15 min after administration) of 50.08 ± 9.88 mmHg, a heart rate ([3]; 15 min after administration) of 324.96 ± 36.20 beat/min and a left intraventricular pressure ([3]; 15 min after administration) of 120.22 ± 12.98 mmHg. The mean arterial pressure ([3]; 15 min after administration) was 66.21 ± 11.57 mmHg, the “change-rate of left intraventricular pressure MAX” value ([3]; 30 min after administration) was 4152.8 ± 901.5 mmHg/s and the “change-rate … -MAX” value ([3]; 30 min after administration) was −3416.6 ± 767.5 mm/Hg/s. For the same molecule, the contractive pressure ([3]; 30 min after administration) was 94.47 ± 17.17 mmHg, the diastolic pressure ([3]; 30 min after administration) was 48.00 ± 9.98 mmHg and the heart rate ([3]; 30 min after administration) was 322.02 ± 51.09 beat/min. The left intraventricular pressure ([3]; 30 min after administration) was 116.59 ± 13.59 mmHg, the mean arterial pressure ([3]; 30 min after administration) was 63.49 ± 11.93 mmHg and the “change-rate of left intraventricular pressure MAX” value ([3]; 60 min after administration) was 3919.4 ± 784.0 mmHg/s. The contractive pressure ([3]; 60 min after administration) was 98.49 ± 22.31 mmHg, the diastolic pressure ([3]; 60 min after administration) was 48.81 ± 11.47 mmHg and the heart rate ([3]; 60 min after administration) was 317.91 ± 58.04 beat/min. For the same molecule, the left intraventricular pressure ([3]; 60 min after administration) was 115.68 ± 15.37 mmHg, the mean arterial pressure ([3]; 60 min after administration) was 65.37 ± 14.57 mmHg and the “change-rate of left intraventricular pressure MAX” value ([3]; 90 min after administration) was 3759.0 ± 814.5 mmHg/s. The “change-rate … -MAX” value ([3]; 90 min after administration) was −3247.4 ± 773.2 mm/Hg/s, the contractive pressure ([3]; 90 min after administration) was 99.15 ± 23.91 mmHg and the diastolic pressure ([3]; 90 min after administration) was 49.38 ± 13.27 mmHg. It also gave a heart rate ([3]; 90 min after administration) of 329.61 ± 55.70 beat/min, a left intraventricular pressure ([3]; 90 min after administration) of 115.10 ± 16.60 mmHg and a mean arterial pressure ([3]; 90 min after administration) of 65.97 ± 16.34 mmHg. The “change-rate of left intraventricular pressure MAX” value ([3]; 120 min after administration) was 4044.6 ± 844.9 mmHg/s, the “change-rate … -MAX” value ([3]; 120 min after administration) was −3452.2 ± 630.9 mm/Hg/s and the contractive pressure ([3]; 120 min after administration) was 102.58 ± 27.01 mmHg. For the same molecule, the diastolic pressure ([3]; 120 min after administration) was 51.84 ± 13.93 mmHg, the heart rate ([3]; 120 min after administration) was 328.05 ± 58.98 beat/min and the left intraventricular pressure ([3]; 120 min after administration) was 118.39 ± 16.55 mmHg. The mean arterial pressure ([3]; 120 min after administration) was 68.75 ± 17.93 mmHg, the “change-rate of left intraventricular pressure MAX” value ([3]; before administration) was 5455.9 ± 1418.1 mmHg/s and the “change-rate … -MAX” value ([3]; before administration) was −4215.6 ± 1058.0 mm/Hg/s. It also gave a contractive pressure ([3]; before administration) of 137.10 ± 28.79 mmHg, a diastolic pressure ([3]; before administration) of 75.39 ± 19.27 mmHg and a heart rate ([3]; before administration) of 363.19 ± 46.67 beat/min. The left intraventricular pressure ([3]; before administration) was 137.79 ± 18.96 mmHg, the mean arterial pressure ([3]; before administration) was 95.96 ± 22.22 mmHg and the “dp/dt (in words)” value ([3]; verapamil group (11.4 mg/kg)) was “significantly reduced”. For the same molecule, the “effect on the heart rate (in words)” value ([3]; verapamil group (11.4 mg/kg)) was “significantly reduced”, the “left intraventricular pressure (in words)” value ([3]; verapamil group (11.4 mg/kg)) was “significantly reduced” and the “−dp/dt (in words)” value ([3]; verapamil group (11.4 mg/kg)) was “significantly reduced”. The “mean arterial pressure, systolic pressure and diastolic pressure (in words)” value ([3]; verapamil group (11.4 mg/kg), 5-120 min) was “significantly reduce”, the CK-MB [4] was 776.6 ± 127.6 U/L and the MDA [5] was 11.86 ± 5.93 nmol/mL. The Infarct region weight [6] was 0.18 ± 0.04 g, the Non-infarct region weight [6] was 0.46 ± 0.08 g and the “Percentage (infarct cardiac muscles of whole ventricle, by weight)” value [6] was 27.60 ± 5.03 %. For the same molecule, the Ventricle weight [6] was 0.65 ± 0.09 g, the SOD [7] was 126.16 ± 28.10 U/mL and the LDH [8] was 1160.8 ± 145.0 U/L.
